PubChem BioAssay (NCI)
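Interpolation was linear, between the two tested concentrations surrounding the appropriate level; five concentrations were tested over 48 hours in 96-well plates. Abbreviation: GI50, concentration required for 50% inhibition of growth. TGI denotes the concentration required for complete inhibition of growth.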

These molecules were tested on ACHN renal (assay: DTP human tumour cell line panel, 48 h).

SMILES	TGI [µM]	GI50 [µM]
CC(=O)N1CCN(c2ccc(OCC3COC(Cn4ccnc4)(c4ccc(Cl)cc4Cl)O3)cc2)CC1 (stereo not given)	> 100	–
O=C(Cc1nc2c3c(ccc2[nH]c1=O)C(=O)c1ccccc1C3=O)C(=O)Nc1ccccc1[N+](=O)[O-]	33.9	–
CC1=C(C#N)C(=O)CC(c2ccc(Cl)cc2)N(C)N1 (stereo not given)	> 100	–
Nc1nc(-c2ccc(Cl)c([N+](=O)[O-])c2)cs1	> 100	–
COc1cc(/C=C2\[C@H]3c4c(c(OC)c(C)c(OC)c4OC)CC(C(=O)N2Cc2ccccc2)N3C)c(OC)c(C)c1OC	78.7	–
CC1(C)CN=C(NN=C(/C=C/c2ccc(C(F)(F)F)cc2)/C=C/c2ccc(C(F)(F)F)cc2)NC1	2.48	1.19
COc1cc(/C=C\c2cc(OC)c(OC)c(OC)c2)cc(N/C=C\C(=O)c2c[nH]c3ccccc23)c1OC	3.39	1.75
CCCCCCCCCCNC(=O)CI	3.08	1.65
Cc1cc(N/N=C/c2ccccn2)nc2ccccc12	11.1	0.347
O=C(N/C(=C\c1ccc([N+](=O)[O-])cc1)c1nc2ccccc2[nH]1)c1ccccc1	> 100	–
COC(=O)/C([Se]c1c(C)cc(C)cc1C)=C(/[Se]c1c(C)cc(C)cc1C)C(=O)OC	> 100	–
CC(C)(C)[Si](C)(C)OC1[C@@H](CNC(=O)NC(=O)CCl)O[C@@H](n2cnc3c(N)ncnc32)[C@H]1O[Si](C)(C)C(C)(C)C (stereo not given in full)	1.11	0.462
NC(=O)C(=O)CC(=O)c1ccccc1NC1=CC(=O)C(=O)c2ccccc21	> 100	–
Cc1cc2c(c(C(N)=O)c1C)-c1ccccc1C2=O	> 100	–
COC(=O)/C(=N/O)C(C(=O)C=C(C)C)C(=O)C(=O)Nc1nc2ccc([N+](=O)[O-])cc2s1 (stereo not given)	67.1	–
Cc1ccccc1C1=[N+]([O-])c2ccc(Cl)cc2C1=O	25.5	–
c1coc(-c2c3ccc(=[N+]4CCCCC4)cc-3oc3cc(N4CCCCC4)ccc23)c1	0.12	0.0327
Cc1[nH]c2ccccc2c1C1Cc2ccccc2N1C(=O)C#Cc1ccc([N+](=O)[O-])cc1 (stereo not given)	> 100	–
CCOC(=O)NC(=O)c1cn(C2CCCCC2)c(=O)[nH]c1=O	> 100	–
Cn1c(=O)nc2n(-c3cc(C(F)(F)F)cc(C(F)(F)F)c3)c3ccccc3nc-2c1=O	> 100	–

Each molecule was assayed on RXF 393 renal (assay: DTP human tumour cell line panel, 48 h).

SMILES	GI50 [µM]	TGI [µM]
O=C1CCCN1c1ccccc1I(=O)=O	> 100	> 100
Nc1ccccc1C(=O)/C=C/c1c(O)ccc2ccccc12	–	> 100
CC(C)c1[nH]nc2c1N=C(c1ccccc1Cl)c1cc([N+](=O)[O-])ccc1N2	3.64	8.45
CCC1CN2CCc3cc(OC)c(OC)cc3C2CC1CC1c2cc(OC)c(OC)cc2CCN1C(=O)C1CCCN1 (stereo not given)	–	73.8
CC(C(=O)c1ccc(Cl)cc1)/C(=N/NC(=O)NN)C(=O)Nc1cccc(C(F)(F)F)c1 (stereo not given)	–	> 100
CCOP(=O)(OCC)C(C(=O)OC)C(=O)C(=O)Nc1ccc(Cl)cc1Cl (stereo not given)	–	> 100
CC(C)=C1CCC(CN(C)C)C1=O (stereo not given)	–	33.5
COc1cccc(/C=N/[N-]C(=O)c2ccncc2)c1[O-].COc1cccc(/C=N/[N-]C(=O)c2ccncc2)c1[O-].[O]=[U](=[O])([OH2+])[OH2+]	6.11	25.3
CC(C)(C)c1ccc2c(c1)S(=O)(=O)Nc1ccc(Cl)cc1NS(=O)(=O)c1cc(C(C)(C)C)ccc1OCCOCCOCCO2	–	79.1
N#CC(=Nc1ccccc1N(C(=O)c1ccccc1)C(=O)c1ccccc1)c1ccccc1	–	> 39.3
COc1c(C)n(CCO)ccc1=O	–	> 100
COC(=O)C(=O)C(C(C)=O)C(=O)NCc1ccc(OC)c(OC)c1 (stereo not given)	–	> 100
Nc1c(-c2ccccc2-c2c(N)[n+]([O-])c3ccccc3[n+]2[O-])[n+]([O-])c2ccccc2[n+]1[O-]	–	> 100
CCOC(=O)NC(=O)c1cn(C(CC)COC(=O)NCCCCCCNC(=O)OCC(CC)n2cc(C(=O)NC(=O)OCC)c(=O)[nH]c2=O)c(=O)[nH]c1=O (stereo not given)	–	> 100
COc1ccc(-c2nc(-c3cc(OC)cc(OC)c3)[nH]c2-c2ccc(OC)cc2)cc1	> 100	> 100
O=C(CC(=O)C1CCOC1=O)C(=O)Nc1cccc(Cl)c1 (stereo not given)	–	> 100
CCN1c2ccccc2-c2c3c1cc(C)cc3c1ccccc1[n+]2CC	–	9.51
CC(=O)N1CCN(c2ccc(OCC3COC(Cn4ccnc4)(c4ccc(Cl)cc4Cl)O3)cc2)CC1 (stereo not given)	–	57.8
CC1=C(C#N)C(=O)CC(c2ccc(Cl)cc2)N(C)N1 (stereo not given)	–	> 100
Nc1nc(-c2ccc(Cl)c([N+](=O)[O-])c2)cs1	–	90.1
